Data published in PMC8945811 (2022).

Tests used:
[1] = system: poly rA-poly rU (RNA, polymer) A/U; assay: CD titration; settings: Na-cacodylate, I = 0.05 M, 30 μM polynucleotide
[2] = system: poly dA-poly dT (DNA, polymer) A/T; assay: CD titration; settings: Na-cacodylate, I = 0.05 M; pH 7.0, 1 mM EDTA; 30 μM polynucleotide, r = 0.3; bisignate ICD, minor-groove dimers
[3] = system: ATT triplex (poly dA-2poly dT) (DNA, polymer) A/T/T; assay: UV melting, 260 nm; settings: Na-cacodylate with NaCl, I = 0.1 M, pH 7.0, 1 mM EDTA, r = 0.1, error ±0.5, per base
poly rA (RNA, polymer) A = assay: competition dialysis; settings: Na-cacodylate, I = 0.05 M; pH 7, 1 mM EDTA, 25 °C, 24 h; 5 μM compound; bound amount only in figure
[4] = system: ATT triplex (poly dA-2poly dT) (DNA, polymer) A/T/T; assay: fluorescence titration, Scatchard; settings: Na-cacodylate, I = 0.05 M; pH 7.0, 1 mM EDTA, 25 °C; per phosphate; per base
[5] = system: ATT 26mer triplex (DNA, triplex) AAAAAAAAAAAAAAAAAAAAAAAAAA/TTTTTTTTTTTTTTTTTTTTTTTTTT/TTTTTTTTTTTTTTTTTTTTTTTTTT; assay: fluorescence titration, Scatchard; settings: Na-cacodylate, I = 0.05 M; pH 7.0, 1 mM EDTA, 25 °C; per phosphate; per base
[6] = system: poly dA-poly rU (DNA:RNA, polymer) A/U; assay: fluorescence titration, Scatchard; settings: Na-cacodylate; pH 7.0, 1 mM EDTA, 25 °C; per phosphate; table footnote says I = 0.05 M; per base
[7] = system: poly dA-poly rU (DNA:RNA, polymer) A/U; assay: UV melting of four-polynucleotide mixture, 260 nm; settings: Na-cacodylate with NaCl, I = 0.1 M; pH 7.0, 1 mM EDTA; 2 μM compound, 20 μM (bp) each polynucleotide, r = 0.025; error ±0.5; per base
[8] = system: poly rA-poly rU (RNA, polymer) A/U; assay: UV melting of four-polynucleotide mixture, 260 nm; settings: Na-cacodylate with NaCl, I = 0.1 M; pH 7.0, 1 mM EDTA; 2 μM compound, 20 μM (bp) each polynucleotide, r = 0.025; error ±0.5; per base
[9] = system: poly dA-poly dT (DNA, polymer) A/T; assay: UV melting of four-polynucleotide mixture, 260 nm; settings: Na-cacodylate with NaCl, I = 0.1 M; pH 7.0, 1 mM EDTA; 2 μM compound, 20 μM (bp) each polynucleotide, r = 0.025; error ±0.5; per base
[10] = system: ATT triplex (poly dA-2poly dT) (DNA, polymer) A/T/T; assay: ITC; settings: Na-cacodylate, I = 0.05 M; pH 7.0, 1 mM EDTA, 25 °C; site with n 0.1 of two-site fit (other site 6.5, n 0.7); per base
[11] = system: poly rA-poly dT (DNA:RNA, polymer) A/T; assay: ITC; settings: Na-cacodylate, I = 0.05 M; pH 7.0, 1 mM EDTA, 25 °C; one-site fit; per base
poly dT (DNA, polymer) T = assay: competition dialysis; settings: Na-cacodylate, I = 0.05 M; pH 7, 1 mM EDTA, 25 °C, 24 h; 5 μM compound; bound amount only in figure
[12] = system: poly rA-poly dT (DNA:RNA, polymer) A/T; assay: UV melting of four-polynucleotide mixture, 260 nm; settings: Na-cacodylate with NaCl, I = 0.1 M; pH 7.0, 1 mM EDTA; 2 μM compound, 20 μM (bp) each polynucleotide, r = 0.025; error ±0.5; per base
[13] = third-strand transition (duplex transition 0)

## Clc1c(-c2nc3ccc(C4=NCCN4)cc3s2)sc2ccccc12
[1]; pH 7.0, 1 mM EDTA, r = 0.3, negative ICD, intercalation
  binding: yes
[2]
  binding: yes
[3]; [13]
  ΔTm: 43.7 °C
Poly rA (RNA, polymer) A
  binding: yes
[4]
  log Ks: 7.6
[5]
  log Ks: 7.4
[6]
  log Ks: 8.0
[7]
  ΔTm: 5.5 °C
[8]
  ΔTm: 0 °C
[9]
  ΔTm: 0 °C

## c1cc2nc(-c3cncc(-c4nc5ccc(C6=NCCN6)cc5s4)c3)sc2cc1C1=NCCN1
[10]
  log Ks: 8.7
[11]
  log Ks: 7.8
[3]; third-strand transition (duplex transition 21.9)
  ΔTm: 31.7 °C
Poly dT (DNA, polymer) T
  binding: yes
Poly rA (RNA, polymer) A
  binding: yes
[12]
  ΔTm: 1.7 °C
[7]
  ΔTm: 5.6 °C
[8]
  ΔTm: 2.2 °C
[9]
  ΔTm: 19.1 °C

## c1csc(-c2ccc(-c3nc4ccc(C5=NCCN5)cc4s3)s2)c1
[1]; pH 7.0, bisignate ICD, major-groove dimers
  binding: yes
[3]; [13]
  ΔTm: 27.3 °C
[12]
  ΔTm: 1.7 °C
[9]
  ΔTm: 2.1 °C
